Test results from patent publication US20240319202A1, “METHOD FOR EVALUATING AGGREGATION STATE OF AGGREGATIVE PROTEIN” (HAMAMATSU PHOTONICS K.K., priority 2023, published 2024).

How the values were obtained:
lysozyme = target: T1, lysozyme (Gallus gallus, UniProt P00698); test: Evaluation of aggregation state of heat-denatured lysozyme using light-absorption/fluorescence characteristics of a xanthene dye as index; details: lysozyme 7 μM, dye 1 μM, heat-stirred at 60° C.
T1 construct: purchased FUJIFILM Wako Pure Chemical Corporation
Method: 40 mg of lysozyme (manufactured by FUJIFILM Wako Pure Chemical Corporation) was added to 2 mL of an aqueous solution of 25 mM of hydrochloric acid and 100 mM of sodium chloride, and dissolved by being left to stand. The obtained lysozyme solution was heat-stirred at 200 rpm at 60° C. to cause heat denaturation of the lysozyme, thereby starting the aggregation reaction of the lysozyme. At 0, 10, 20, 25, 30, 35, 40, 45, 50, 60, 70, 80, and 90 minutes after starting heat-stirring, each of 100 μL of the lysozyme solution was extracted and ice-cooled. The ice-cooled lysozyme solution, and rose bengal (manufactured by FUJIFILM Wako Pure Chemical Corporation) were added to distilled water such that final concentrations were each 7 μM and 1 μM. The obtained solution was put in a spectroscopic measurement cell to measure the light-absorption/fluorescence characteristics. The excitation wavelength in fluorescence measurement was 530 nm.
Sample preparation and light absorption and fluorescence measurement were performed in the same manner as in Example 1 except that eosin Y (manufactured by FUJIFILM Wako Pure Chemical Corporation) was used instead of rose bengal as the xanthene dye, and that the excitation wavelength in fluorescence measurement was set to 500 nm. […]

[1] = target: T2, horseradish peroxidase (HRP) (Armoracia rusticana, UniProt P00433); test: Evaluation of aggregation state of heat-denatured horseradish peroxidase using light-absorption/fluorescence characteristics of rose bengal as index; details: HRP 5 μM, dye 1 μM, heat-stirred at 70° C., PBS pH 7.4
T2 construct: purchased FUJIFILM Wako Pure Chemical Corporation
T2 sequence (P00433 31-338): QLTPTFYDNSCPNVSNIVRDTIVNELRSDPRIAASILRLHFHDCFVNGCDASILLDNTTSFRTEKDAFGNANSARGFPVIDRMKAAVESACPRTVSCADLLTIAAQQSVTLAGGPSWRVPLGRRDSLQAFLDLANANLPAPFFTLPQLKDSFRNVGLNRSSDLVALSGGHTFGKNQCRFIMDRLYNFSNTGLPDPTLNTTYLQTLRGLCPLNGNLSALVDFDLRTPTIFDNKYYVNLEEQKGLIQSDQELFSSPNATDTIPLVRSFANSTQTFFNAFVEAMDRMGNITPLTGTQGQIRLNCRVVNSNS
Method: 40 mg of horseradish peroxidase (HRP, manufactured by FUJIFILM Wako Pure Chemical Corporation) was added to 2 mL of phosphate buffered saline at pH 7.4, and dissolved by being left to stand. The obtained HRP solution was heat-stirred at 200 rpm at 70° C. to cause heat denaturation of the HRP, thereby starting the aggregation reaction of the HRP. At 0, 5, 10, 15, 20, 25, 30, 35, 40, 50, 60, 70, 80, and 90 minutes after starting heat-stirring, each of 100 μL of the HRP solution was extracted and ice-cooled. The ice-cooled HRP solution, and rose bengal (manufactured by FUJIFILM Wako Pure Chemical Corporation) were added to distilled water such that final concentrations were each 5 μM and 1 μM. The obtained solution was put in a spectroscopic measurement cell to measure the light-absorption/fluorescence characteristics. The excitation wavelength in fluorescence measurement was 530 nm.

T1 sequence (P00698 19-147): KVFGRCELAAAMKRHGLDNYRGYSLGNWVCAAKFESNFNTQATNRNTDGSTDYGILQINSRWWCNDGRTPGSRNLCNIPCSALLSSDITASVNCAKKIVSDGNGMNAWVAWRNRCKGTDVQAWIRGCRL

heat denaturation time at the minimum point of maximum absorbance (decreasing, thereafter increasing) ([1]; HRP absorption subtracted)	heat denaturation time at the minimum point of fluorescence intensity at around 570 nm and maximum fluorescence intensity (decreasing, thereafter increasing) ([1]; excitation 530 nm)	Structure (SMILES)	shape of the absorption spectra, maximum absorption wavelength and maximum absorbance versus heat denaturation time (lysozyme)
		O.O=C([O-])c1ccccc1-c1c2cc(I)c(=O)c(I)c-2oc2c(I)c([O-])c(I)cc12.[Na+].[Na+] [erythrosin B]	changed depending on a heat denaturation time
around 20 minutes	around 20 minutes	O=C(O)c1c(Cl)c(Cl)c(Cl)c(Cl)c1-c1c2cc(I)c(=O)c(I)c-2oc2c(I)c(O)c(I)cc12 [rose bengal]	
